For orientation: IC50 means the point on the concentration scale where inhibition reaches its midpoint.

The structures appear in SMILES notation.

The target in the assay is T1, Non-receptor tyrosine-protein kinase TYK2 [556-871] (Homo sapiens, UniProt P29597).
T1 construct: 556-871
T1 sequence (P29597 556-871): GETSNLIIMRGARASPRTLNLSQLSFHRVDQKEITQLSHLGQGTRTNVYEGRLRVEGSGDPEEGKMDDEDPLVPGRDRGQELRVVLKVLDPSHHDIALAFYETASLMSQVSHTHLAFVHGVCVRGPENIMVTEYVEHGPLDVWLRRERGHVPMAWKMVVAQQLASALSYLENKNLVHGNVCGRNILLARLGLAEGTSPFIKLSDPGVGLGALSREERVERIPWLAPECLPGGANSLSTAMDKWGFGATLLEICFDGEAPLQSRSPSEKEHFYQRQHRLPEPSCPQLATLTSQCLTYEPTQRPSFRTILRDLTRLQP
As to the kind of experiment: Probe Displacement Assay. On the procedure: The probe displacement assay is conducted as follows: In a 384-well plate, test compound along with recombinantly expressed His-tagged protein corresponding to amino acids 556-871 of human TYK2 (sequence shown below) at 5 nM, 33 nM probe (BB, preparation described below) and 0.33 mg/mL Yttrium oxide (YOx) His-capture SPA beads (PerkinElmer, RPNQ0276) in IX PBS containing 10 mM MgCl2, 0.1 mg/mL BSA, 0.1 mM TCEP, 0.005% Tween-20, and 1% DMSO (final concentration) were incubated for 10 hours at room temperature. The amount of radiolabeled probe bound to TYK2 was then quantified using a ViewLux Microplate Imager, and the fraction bound by the test compound calculated by comparison to wells containing scale references for 0% and 100% probe displacement. The IC50 value is defined as the concentration of test compound required to inhibit radiolabeled probe binding by 50%.
In the case of `CO[C@@]1(c2cc(C)cc(-n3nc(-c4cnn(C)c4)c4cnc(NC(N)=O)cc43)n2)CCOC1` [WO2022109580, Example 1], the IC50 was determined as 2 nM. The molecule `CO[C@]1(c2cc(C)cc(-n3nc(-c4cnn(C)c4)c4cnc(NC(N)=O)cc43)n2)CCOC1` [WO2022109580, Example 2] gave a 50% inhibitory concentration (IC50) of 4 nM. As for `CO[C@@]1(c2cc(C)cc(-n3nc(-c4cnoc4)c4cnc(NC(N)=O)cc43)n2)CCOC1` [WO2022109580, Example 3], the IC50 worked out at 1 nM. This IC50 is about 4-fold lower than that of the molecule before. As for `CO[C@]1(c2cc(C)cc(-n3nc(-c4cnoc4)c4cnc(NC(N)=O)cc43)n2)CCOC1` [WO2022109580, Example 4], the half-maximal inhibitory concentration (IC50) was 2 nM.

In turn, `CO[C@@]1(c2cc(C)cc(-n3nc(C)c4cnc(NC(N)=O)cc43)n2)CCOC1` [WO2022109580, Example 5] gave an IC50 of 3 nM.

`CO[C@]1(c2cc(C)cc(-n3nc(C)c4cnc(NC(N)=O)cc43)n2)CCOC1` [WO2022109580, Example 6] yielded an IC50 of 8 nM. The same measure for `COCCOc1cc(-n2nc(C)c3cnc(NC(N)=O)cc32)nc([C@]2(OC)CCOC2)c1` [WO2022109580, Example 9]: 2 nM. Molecule `COCCOc1cc(-n2nc(C)c3cnc(NC(N)=O)cc32)nc([C@@]2(OC)CCOC2)c1` [WO2022109580, Example 10] registered an IC50 of 6 nM. `CO[C@@]1(c2cc(OC[C@@H](C)O)cc(-n3nc(C)c4cnc(NC(N)=O)cc43)n2)CCOC1` [WO2022109580, Example 11] gave an IC50 of 2 nM. `CO[C@]1(c2cc(OC[C@@H](C)O)cc(-n3nc(C)c4cnc(NC(N)=O)cc43)n2)CCOC1` [WO2022109580, Example 12] had an IC50 of 6 nM. In turn, `CO[C@@]1(c2cc(OCC3COC3)cc(-n3nc(C)c4cnc(NC(N)=O)cc43)n2)CCOC1` [WO2022109580, Example 13] gave an IC50 of 2 nM. The same measure for `CO[C@]1(c2cc(OCC3COC3)cc(-n3nc(C)c4cnc(NC(N)=O)cc43)n2)CCOC1` [WO2022109580, Example 14]: 4 nM; for `CO[C@]1(c2cc(OCC3CS(=O)(=O)C3)cc(-n3nc(C)c4cnc(NC(N)=O)cc43)n2)CCOC1` [WO2022109580, Example 16]: 7 nM. For `CO[C@@]1(c2cc(C)cc(-n3cc(C)c4cnc(NC(N)=O)cc43)n2)CCOC1` [WO2022109580, Example 17] the value was 4 nM. `CO[C@]1(c2cc(C)cc(-n3cc(C)c4cnc(NC(N)=O)cc43)n2)CCOC1` [WO2022109580, Example 18] showed an IC50 of 8 nM.

Regarding `CO[C@@]1(c2cc(OCC3COC3)cc(-n3cc(C)c4cnc(NC(N)=O)cc43)n2)CCOC1` [WO2022109580, Example 19], the IC50 came to 2 nM. For `CO[C@]1(c2cc(OCC3COC3)cc(-n3cc(C)c4cnc(NC(N)=O)cc43)n2)CCOC1` [WO2022109580, Example 20] the value was 11 nM; for `CO[C@]1(c2cc(OCC3CS(=O)(=O)C3)cc(-n3cc(C)c4cnc(NC(N)=O)cc43)n2)CCOC1` [WO2022109580, Example 22], 14 nM.

In turn, `CO[C@@]1(c2cc(C)cc(N3C=C(c4cnn(C)c4)N4C=NC(NC(N)=O)=CC43)n2)CCOC1` (stereo partly specified) [WO2022109580, Example 23] displayed an IC50 of 5 nM. The same measure for `CO[C@]1(c2cc(C)cc(-c3cc(-c4cnn(C)c4)n4cnc(NC(N)=O)cc34)n2)CCOC1` [WO2022109580, Example 24]: 42 nM; for `CO[C@]1(c2cc(C)cc(-c3cc(C)n4cnc(NC(N)=O)cc34)n2)CCOC1` [WO2022109580, Example 25]: 2 nM.

(Values after BindingDB's records for patent WO2022109580 (JANSSEN PHARMACEUTICA NV, 2022).)
